What was measured:
[1] = molecular target: T1, Cholecystokinin receptor type A (Homo sapiens, UniProt P32238); type: cell membranes, Membrane; settings: 1321-n1; also: in other assays of this panel Not Active means under 50% inhibition at 10 µM
T1 sequence (P32238 whole entry): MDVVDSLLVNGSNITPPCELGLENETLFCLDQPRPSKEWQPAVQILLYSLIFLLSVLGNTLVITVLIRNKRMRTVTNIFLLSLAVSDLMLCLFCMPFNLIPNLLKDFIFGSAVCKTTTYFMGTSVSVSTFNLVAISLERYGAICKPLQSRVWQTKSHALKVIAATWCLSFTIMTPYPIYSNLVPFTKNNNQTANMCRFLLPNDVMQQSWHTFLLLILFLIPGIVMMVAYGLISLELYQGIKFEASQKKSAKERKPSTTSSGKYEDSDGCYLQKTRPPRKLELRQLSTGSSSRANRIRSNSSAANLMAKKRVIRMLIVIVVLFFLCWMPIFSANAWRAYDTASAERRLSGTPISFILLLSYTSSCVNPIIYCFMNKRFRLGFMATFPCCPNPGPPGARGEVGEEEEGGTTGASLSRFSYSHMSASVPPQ

[2] = molecular target: Sodium-dependent dopamine transporter (Homo sapiens, UniProt Q01959); test: DRUGMATRIX: Dopamine Transporter radioligand binding (ligand: [125I] RTI-55); type: cell membranes, CHO-K1, Membrane; settings: cho-k1; Not Active = under 50% inhibition at 10 µM
Glycine receptor = Glycine receptor (Rattus norvegicus, UniProt P22771+P24524+P07727+P20781); type: cell membranes, Wistar, Spinal cord, Membrane; also: in other assays of this panel Not Active means under 50% inhibition at 10 µM
[3] = DRUGMATRIX: Interleukin IL-1 radioligand binding (ligand: [125I] interleukin 1beta); type: cell membranes, Membrane; settings: nih3t3; Not Active = under 50% inhibition at 10 µM
[4] = DRUGMATRIX: Nicotinic Acetylcholine radioligand binding (ligand: [125I] Epibatidine); type: cell membranes, Membrane; settings: imr-32; Not Active = under 50% inhibition at 10 µM
[5] = DRUGMATRIX: Phorbol Ester radioligand binding (ligand: [3H] PDBu); type: cell membranes, Mus musculus, ICR, Brain, Membrane; settings: Not Active = under 50% inhibition at 10 µM
[6] = molecular target: Tyrosine-protein kinase Fyn (Homo sapiens, UniProt P06241); test: biochemical; type: cell-based, Insect cells; settings: insect cells;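 also: enzymatic inhibition of Fyn kinase activity measured with Poly(Glu:Tyr) as the phosphorylation substrate; in other assays of this panel Not Active means under 50% inhibition at 10 µM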
[7] = molecular target: Receptor tyrosine-protein kinase erbB-2 (Homo sapiens, UniProt P04626); type: cell-based; settings: insect cells;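 also: inhibition of HER2 kinase enzyme activity, measured with Poly(Glu:Tyr) as the phosphorylation substrate; in other assays of this panel Not Active means under 50% inhibition at 10 µM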
Receptor tyrosine-protein kinase erbB-2, sequence (P04626 whole entry): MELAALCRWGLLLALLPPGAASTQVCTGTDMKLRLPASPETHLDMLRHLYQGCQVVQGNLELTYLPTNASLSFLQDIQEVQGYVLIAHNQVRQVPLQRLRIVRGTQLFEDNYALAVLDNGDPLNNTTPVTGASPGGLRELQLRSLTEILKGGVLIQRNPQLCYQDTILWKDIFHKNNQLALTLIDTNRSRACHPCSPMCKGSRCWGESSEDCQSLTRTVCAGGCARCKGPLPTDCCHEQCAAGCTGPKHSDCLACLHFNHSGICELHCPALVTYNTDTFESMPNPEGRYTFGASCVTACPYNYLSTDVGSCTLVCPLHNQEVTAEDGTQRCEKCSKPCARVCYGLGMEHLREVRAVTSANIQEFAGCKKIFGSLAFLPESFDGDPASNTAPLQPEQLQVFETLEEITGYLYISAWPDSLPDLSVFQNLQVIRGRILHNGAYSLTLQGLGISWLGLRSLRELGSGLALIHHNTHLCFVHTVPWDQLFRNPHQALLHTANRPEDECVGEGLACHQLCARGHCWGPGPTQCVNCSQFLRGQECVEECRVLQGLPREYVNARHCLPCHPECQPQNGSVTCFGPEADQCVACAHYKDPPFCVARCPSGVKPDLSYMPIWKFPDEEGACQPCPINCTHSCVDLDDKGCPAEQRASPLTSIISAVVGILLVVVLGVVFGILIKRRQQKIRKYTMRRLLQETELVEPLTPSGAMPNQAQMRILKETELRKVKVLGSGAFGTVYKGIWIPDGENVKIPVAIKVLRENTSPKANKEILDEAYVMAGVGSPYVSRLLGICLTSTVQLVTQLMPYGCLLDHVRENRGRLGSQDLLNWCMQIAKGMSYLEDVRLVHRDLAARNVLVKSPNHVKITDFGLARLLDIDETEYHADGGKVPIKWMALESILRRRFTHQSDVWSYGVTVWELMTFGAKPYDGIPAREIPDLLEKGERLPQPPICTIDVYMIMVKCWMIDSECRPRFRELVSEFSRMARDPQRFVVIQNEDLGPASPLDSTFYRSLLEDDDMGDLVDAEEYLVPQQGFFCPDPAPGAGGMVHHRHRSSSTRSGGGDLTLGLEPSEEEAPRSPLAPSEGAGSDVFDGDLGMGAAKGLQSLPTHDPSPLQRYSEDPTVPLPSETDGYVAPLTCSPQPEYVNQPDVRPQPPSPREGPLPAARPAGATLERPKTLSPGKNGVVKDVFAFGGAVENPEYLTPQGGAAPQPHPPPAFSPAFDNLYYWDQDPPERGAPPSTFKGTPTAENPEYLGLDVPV

Sodium-dependent dopamine transporter, sequence (Q01959 whole entry): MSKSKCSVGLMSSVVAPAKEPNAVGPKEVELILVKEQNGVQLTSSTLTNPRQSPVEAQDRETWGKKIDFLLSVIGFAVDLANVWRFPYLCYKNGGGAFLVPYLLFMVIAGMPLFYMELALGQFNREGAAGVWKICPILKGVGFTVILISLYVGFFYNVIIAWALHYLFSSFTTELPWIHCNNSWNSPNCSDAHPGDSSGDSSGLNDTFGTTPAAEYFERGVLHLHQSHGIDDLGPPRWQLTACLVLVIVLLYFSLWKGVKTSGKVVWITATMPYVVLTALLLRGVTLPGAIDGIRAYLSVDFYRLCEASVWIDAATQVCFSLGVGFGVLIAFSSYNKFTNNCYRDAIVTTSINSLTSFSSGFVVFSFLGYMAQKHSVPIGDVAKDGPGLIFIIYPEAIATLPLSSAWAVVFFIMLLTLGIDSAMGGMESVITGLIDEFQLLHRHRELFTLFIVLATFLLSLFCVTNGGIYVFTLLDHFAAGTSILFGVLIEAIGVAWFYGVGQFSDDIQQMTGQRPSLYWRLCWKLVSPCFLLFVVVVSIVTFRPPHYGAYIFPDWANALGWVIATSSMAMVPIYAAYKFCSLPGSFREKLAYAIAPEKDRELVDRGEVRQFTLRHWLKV
Tyrosine-protein kinase Fyn, sequence (P06241 whole entry): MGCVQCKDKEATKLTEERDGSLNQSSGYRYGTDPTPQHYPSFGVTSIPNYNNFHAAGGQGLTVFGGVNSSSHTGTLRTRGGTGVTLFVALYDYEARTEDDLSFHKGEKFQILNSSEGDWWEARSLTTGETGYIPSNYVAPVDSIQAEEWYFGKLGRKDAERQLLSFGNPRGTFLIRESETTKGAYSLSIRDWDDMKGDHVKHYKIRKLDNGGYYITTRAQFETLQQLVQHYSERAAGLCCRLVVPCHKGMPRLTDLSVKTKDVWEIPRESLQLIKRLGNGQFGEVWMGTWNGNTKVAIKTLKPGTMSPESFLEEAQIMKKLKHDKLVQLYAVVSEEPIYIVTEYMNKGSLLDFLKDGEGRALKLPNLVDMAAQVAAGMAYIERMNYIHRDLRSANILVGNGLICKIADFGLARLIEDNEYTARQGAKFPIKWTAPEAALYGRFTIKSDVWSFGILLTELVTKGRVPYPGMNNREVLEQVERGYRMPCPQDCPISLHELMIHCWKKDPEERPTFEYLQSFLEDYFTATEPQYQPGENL

C[C@]12CCC(=O)C[C@@H]1CC[C@@H]1[C@@H]2CC[C@]2(C)[C@@H](O)CC[C@@H]12 [STANOLONE]
Not Active: IC50 [1] | IC50 [2] | IC50 (Glycine receptor) | IC50 [3] | Ki [3] | IC50 [4] | Ki [4] | IC50 [5] | Ki [5] | IC50 [6] | IC50 [7]

CC1(C)[C@H](C(=O)O)N2C(=O)C[C@H]2S1(=O)=O [SULBACTAM]
Not Active: IC50 [1] | IC50 [2] | IC50 (Glycine receptor) | IC50 [3] | Ki [3] | IC50 [4] | Ki [4] | IC50 [5] | Ki [5] | IC50 [6] | IC50 [7]

CCOC(=O)C1=C(C)NC(C)=C(C(=O)OCC)C1c1ccccc1/C=C/C(=O)OC(C)(C)C [LACIDIPINE]
Not Active: IC50 [1] | IC50 [2] | IC50 (Glycine receptor) | IC50 [3] | Ki [3] | IC50 [4] | Ki [4] | IC50 [5] | Ki [5] | IC50 [6] | IC50 [7]

CC(N)C12CC3CC(CC(C3)C1)C2 (stereo not given) [RIMANTADINE]
Not Active: IC50 [1] | IC50 [2] | IC50 (Glycine receptor) | IC50 [3] | Ki [3] | IC50 [4] | Ki [4] | IC50 [5] | Ki [5] | IC50 [6] | IC50 [7]

CO[C@@]12[C@H](COC(N)=O)C3=C(C(=O)C(C)=C(N)C3=O)N1C[C@@H]1N[C@@H]12 [MITOMYCIN]
Not Active: IC50 [1] | IC50 [2] | IC50 (Glycine receptor) | IC50 [3] | Ki [3] | IC50 [4] | Ki [4] | IC50 [5] | Ki [5] | IC50 [6] | IC50 [7]

Source: ChEMBL document CHEMBL1909046, “DrugMatrix in vitro pharmacology data”
